System: linear 32P-end-labelled HexA DNA
Experiment: DNA interstrand cross-linking assay (denaturing polyacrylamide gel)
Format: biochemical
Conditions: overnight incubation at 37° C.
Experimental: The ability of 26 and 34 to cross-link DNA was determined using an assay involving linear double-stranded HexA. TyrT and MS1 DNA fragments (FIG. 5).
Following denaturation conditions (treatment with formamide and heating at 65° C. for 5 min) the DNA strands were completely separated (see control C2, FIG. 6). The presence of an interstrand cross-link holds the denatured strands in close proximity, and cross-linked adducts therefore run as double-stranded DNA on polyacrylamide gel. Talirine and 34 were tested at >10 different concentrations, and the assay was repeated twice. […] C1 and C2 represent controls where C1 is DNA without formic acid, and C2 is DNA without formic acid, but heated thereby forming single strands. Cross-links are clearly detectable at concentrations as low as 10 nM. Using the same assay, the PBD dimer Talirine was also shown to cross-link DNA down to a concentration of 10 nM (FIG. 7).
The preparation of the DNA fragments (FIG. 5) has been previously described^[4]. Briefly, the sequence which had been cloned into the BamHI site of pUC18 was obtained by cutting with HindIII and EcoRI. Radiolabelled DNA fragments were prepared by filling in the 3′-end of the HindIII site with [α-^32P]dATP using Klenow DNA polymerase (exo-).
The radiolabelled DNA fragment was separated from the remainder of the plasmid DNA on a 6% non-denaturing polyacrylamide gel. […]

CNS(=O)(=O)c1ccc(C2=CCN3C(=O)c4cc(OC)c(OCc5cccc(COc6cc7c(cc6OC)C(=O)N6CC=C(c8ccc(S(=O)(=O)NC)cc8)C[C@H]6C=N7)n5)cc4N=C[C@@H]3C2)cc1 [Compound 34, 4,4′-((6aS,6a′S)-((Pyridine-2,6-diylbis(methylene))bis(oxy))bis(2-methoxy-12-oxo-6a,7,10,12-tetrahydrobenzo[e]pyrido[1,2-α][1,4]diazepine-3,8-diyl))bis(N-methylbenzenesulfonamide)]
lowest concentration at which DNA interstrand cross-links are detectable: 10 nM

Source: patent US11466032B2, “Cytotoxic agents” (FEMTOGENIX LIMITED, priority 2017, dated 2022)
